Among the data in ChEMBL document CHEMBL1201862, “PubChem BioAssay data set” (2004) are EC50, IC50 and AC50 values, retold here.

As a reminder, the EC50 is the concentration giving half of the maximal effect. As a reminder, the IC50 is the concentration needed to halve the response being measured. The term AC50 denotes the concentration giving half of the maximal activity seen.

Molecules are shown by their SMILES. Calls of active or inactive are those of the source.

Assay [1] in a line: inhibitors of SNCA 5'UTR-driven reporter translation, confirmation, H4 neuroglioma cells, luminescence (AID 1988). In kind it is functional, cell-based.
Assay [2] is described as follows: growth suppression of PTEN-null colon cells, dose response, cell-based, HCT116 PTEN knockout (AID 1047).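 Further: HCT116 colon tumor cells with PTEN knocked out; cells exposed to compound for 60 hours before readout; potency for loss of cell viability measured by luminescence.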 It counts as functional.
A short description of assay [3]: growth suppression of beta-catenin-knockout colon cells, dose response, cell-based, HCT116, human colon tumor (AID 1045).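 Further: HCT116 colon tumor cells with beta catenin knocked out; cells exposed to compound for 60 hours.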 It counts as functional.
Assay [4] has as its system BJ. Nature of the assay: cytotoxicity toward Ras-transformed BJeLR fibroblasts, dose response, cell-based, alamar blue fluorescence, cherrypicked samples (AID 2631).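 Further: confirmatory dose-response assay in RAS-dependent BJ fibroblasts engineered with TERT, LT and ST, with cytotoxicity read by fluorescence.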 It counts as functional. The conditions noted are these: Homo sapiens. (The colour change of resazurin is a common sign of viable cells or microbes.)
Assay [5] has as its target T1, Tyrosyl-DNA phosphodiesterase 2 (Homo sapiens, UniProt O95551).
T1 sequence (O95551 whole entry): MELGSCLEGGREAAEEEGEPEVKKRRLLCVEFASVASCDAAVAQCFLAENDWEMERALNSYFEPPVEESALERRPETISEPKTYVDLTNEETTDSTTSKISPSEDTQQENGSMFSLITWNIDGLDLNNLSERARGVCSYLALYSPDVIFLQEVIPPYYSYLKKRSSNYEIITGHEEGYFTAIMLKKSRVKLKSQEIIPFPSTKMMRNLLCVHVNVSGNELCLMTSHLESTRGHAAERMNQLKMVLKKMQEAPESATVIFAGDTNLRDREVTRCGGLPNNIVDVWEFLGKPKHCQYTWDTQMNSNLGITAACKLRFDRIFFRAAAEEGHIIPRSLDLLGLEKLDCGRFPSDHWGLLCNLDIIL
Briefly: human TDP2 enzyme inhibitors, dose response, biochemical, epi absorbance, IC50 (AID 743297).

The target of assay [6] is Glucose-6-phosphate 1-dehydrogenase (Homo sapiens, UniProt P11413). Briefly: human G6PD enzyme inhibitors, dose response, selectivity assay for P. falciparum G6PD inhibitor project, biochemical, fluorescence (AID 504792). It counts as functional.
Glucose-6-phosphate 1-dehydrogenase, sequence (P11413 whole entry): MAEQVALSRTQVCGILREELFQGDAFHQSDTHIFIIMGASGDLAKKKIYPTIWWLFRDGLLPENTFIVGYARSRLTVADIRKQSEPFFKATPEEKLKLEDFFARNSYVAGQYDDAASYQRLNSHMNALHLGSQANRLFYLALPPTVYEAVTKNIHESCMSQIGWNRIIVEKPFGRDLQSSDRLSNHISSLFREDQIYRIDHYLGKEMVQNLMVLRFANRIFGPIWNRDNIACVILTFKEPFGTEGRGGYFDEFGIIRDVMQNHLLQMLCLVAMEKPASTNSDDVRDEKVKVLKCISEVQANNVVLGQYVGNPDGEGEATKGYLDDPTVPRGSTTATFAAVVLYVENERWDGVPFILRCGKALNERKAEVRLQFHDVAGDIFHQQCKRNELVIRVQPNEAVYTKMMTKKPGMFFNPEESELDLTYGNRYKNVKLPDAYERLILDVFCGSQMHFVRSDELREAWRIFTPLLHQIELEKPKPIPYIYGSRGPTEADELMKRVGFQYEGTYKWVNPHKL
Assay [7] deals with BJ. Briefly: cytotoxicity toward BJ-TERT fibroblasts, dose response, cell-based, RAS-independent, luminescence (AID 1933). It counts as functional. The conditions noted are these: Homo sapiens.
A short description of assay [8]: cytotoxicity in HEK-293T cells, dose response, cytotoxicity control for TCR NF-kB inhibitor project, luminescence, T-cell screen hits (AID 489026).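 Further: cells exposed to compound about 14 hours before the viability readout.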 It counts as functional, cell-based.
A short description of assay [9]: Counterscreen for AddAB inhibitors: absorbance-based bacterial cell-based high throughput dose response assay for inhibitors of bacterial viability. [Related pubchem assays (depositor defined):AID435030, AID449728, AID449731, AID488942, AID488955, AID488956]. In kind it is functional. For orientation: A counterscreen serves to expose hits that act by an unwanted route or on another target.

The next assay concerns HEK293. Briefly: cytotoxicity in HEK293T NF-kB-Luc cells, SAR follow-up, cytotoxicity control for NF-kB activator project, cell-based, resazurin fluorescence (AID 493251). It counts as functional. Particulars: Homo sapiens.
Assay [10] addresses T2, Mitochondrial peptide methionine sulfoxide reductase (Bos taurus, UniProt P54149).
T2 sequence (P54149 whole entry): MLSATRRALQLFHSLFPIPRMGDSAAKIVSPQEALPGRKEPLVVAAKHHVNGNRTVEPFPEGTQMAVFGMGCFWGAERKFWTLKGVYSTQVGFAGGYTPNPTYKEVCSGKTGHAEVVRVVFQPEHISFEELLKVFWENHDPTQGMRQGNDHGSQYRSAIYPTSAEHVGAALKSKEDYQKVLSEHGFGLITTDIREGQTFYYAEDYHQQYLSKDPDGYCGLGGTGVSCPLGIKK
Briefly: Absorbance-based biochemical high throughput dose response assay for activators of Methionine sulfoxide reductase A (MsrA). It counts as functional.

In assay [11] the test system is Streptococcus sp. 'group A'. Briefly: growth inhibition of control SK(-) GAS strain, dose response, counter-screen for streptokinase expression inhibitor project, luminescence, kanamycin, BacTiterGlo, confirmation (AID 1900). In kind it is functional, organism-based.
A further assay deals with T3, Streptokinase A (Streptococcus pyogenes serotype M1, UniProt P10520).
T3 sequence (P10520 whole entry): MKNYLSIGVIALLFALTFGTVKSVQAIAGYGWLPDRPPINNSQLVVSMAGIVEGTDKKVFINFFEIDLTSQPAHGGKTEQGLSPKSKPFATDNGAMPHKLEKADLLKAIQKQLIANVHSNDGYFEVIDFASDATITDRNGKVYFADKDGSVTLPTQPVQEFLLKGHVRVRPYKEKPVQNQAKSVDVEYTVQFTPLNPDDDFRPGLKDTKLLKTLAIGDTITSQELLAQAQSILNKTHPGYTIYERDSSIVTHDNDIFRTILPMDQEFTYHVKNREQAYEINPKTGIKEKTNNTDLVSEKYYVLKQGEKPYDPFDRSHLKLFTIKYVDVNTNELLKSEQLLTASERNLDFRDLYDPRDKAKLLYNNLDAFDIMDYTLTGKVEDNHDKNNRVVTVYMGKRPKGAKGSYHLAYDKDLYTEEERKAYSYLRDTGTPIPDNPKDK
Briefly: S. pyogenes streptokinase expression inhibitors, potency, dose response, plasminogen activation absorbance, OD405 (AID 1914).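 Further: secreted streptokinase activity via plasminogen activation per viability signal from cell pellet.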 In kind it is functional, Streptococcus pyogenes M1 GAS.

The subject of another assay is Streptococcus. Nature of the assay: Group A Streptococcus viability loss, dose response, counter-screen for streptokinase expression inhibitor project, luminescence, BacTiterGlo (AID 1915).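 Further: potency for reduction of bacterial viability or growth.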 It counts as functional, organism-based.
For assay [12], the target named is G-protein coupled receptor 55 (Homo sapiens, UniProt Q9Y2T6). Nature of the assay: GPR55 agonists via beta-arrestin recruitment, primary screen, imaging, U2OS cells, beta-arrestin-GFP redistribution (AID 1961). In kind it is functional. For orientation: Activated receptors often draw arrestin, which recruitment assays turn into a signal.
G-protein coupled receptor 55, sequence (Q9Y2T6 whole entry): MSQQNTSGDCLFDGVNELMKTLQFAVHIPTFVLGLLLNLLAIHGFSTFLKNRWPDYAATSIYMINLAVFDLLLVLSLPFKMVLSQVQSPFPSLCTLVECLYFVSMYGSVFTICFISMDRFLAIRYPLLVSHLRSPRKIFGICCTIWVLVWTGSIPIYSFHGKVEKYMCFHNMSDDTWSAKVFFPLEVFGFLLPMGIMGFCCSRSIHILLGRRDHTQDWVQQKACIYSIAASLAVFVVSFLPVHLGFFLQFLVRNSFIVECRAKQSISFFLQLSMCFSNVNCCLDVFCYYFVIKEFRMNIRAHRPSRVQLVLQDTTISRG
The next assay has as its target Beta Lactamase (Pseudomonas aeruginosa, UniProt Q932Y6). Nature of the assay: beta-lactamase reporter inhibitor potency, dose response, artefact control for TLR9-MyD88 binding inhibitor project, BLA reporter cells, FRET fluorescence (AID 588341).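 Further: cell based assay in CHO-K1 cells stably expressing beta-lactamase.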 In kind it is cell-based.
Assay [13] in a line: inhibitors of clade B AD8 Env fusion, dose response, cell-based, cherry-pick (AID 652062).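 Further: luciferase signal from cell-cell fusion driven by HIV-1 clade B AD8 Env; potency is for inhibitors of fusion seen as a drop in luminescence.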 In kind it is functional.
Another assay deals with SUMO-activating enzyme (Homo sapiens, UniProt Q9UBT2). Nature of the assay: SUMOylation inhibitor hit validation, confirmation, SUMOylation inhibitor project, biochemical, AlphaScreen (AID 2018). It counts as functional.
SUMO-activating enzyme, sequence (Q9UBE0 whole entry): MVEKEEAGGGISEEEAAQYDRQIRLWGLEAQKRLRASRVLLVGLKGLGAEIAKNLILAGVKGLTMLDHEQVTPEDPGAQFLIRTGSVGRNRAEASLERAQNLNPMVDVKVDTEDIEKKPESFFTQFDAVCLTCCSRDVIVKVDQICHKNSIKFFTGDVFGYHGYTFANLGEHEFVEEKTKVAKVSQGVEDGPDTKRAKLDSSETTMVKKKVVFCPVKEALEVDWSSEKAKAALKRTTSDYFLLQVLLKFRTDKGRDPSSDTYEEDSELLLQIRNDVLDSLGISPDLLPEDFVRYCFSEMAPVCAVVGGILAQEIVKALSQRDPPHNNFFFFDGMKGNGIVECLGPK
SUMO-activating enzyme, sequence (Q9UBT2 whole entry): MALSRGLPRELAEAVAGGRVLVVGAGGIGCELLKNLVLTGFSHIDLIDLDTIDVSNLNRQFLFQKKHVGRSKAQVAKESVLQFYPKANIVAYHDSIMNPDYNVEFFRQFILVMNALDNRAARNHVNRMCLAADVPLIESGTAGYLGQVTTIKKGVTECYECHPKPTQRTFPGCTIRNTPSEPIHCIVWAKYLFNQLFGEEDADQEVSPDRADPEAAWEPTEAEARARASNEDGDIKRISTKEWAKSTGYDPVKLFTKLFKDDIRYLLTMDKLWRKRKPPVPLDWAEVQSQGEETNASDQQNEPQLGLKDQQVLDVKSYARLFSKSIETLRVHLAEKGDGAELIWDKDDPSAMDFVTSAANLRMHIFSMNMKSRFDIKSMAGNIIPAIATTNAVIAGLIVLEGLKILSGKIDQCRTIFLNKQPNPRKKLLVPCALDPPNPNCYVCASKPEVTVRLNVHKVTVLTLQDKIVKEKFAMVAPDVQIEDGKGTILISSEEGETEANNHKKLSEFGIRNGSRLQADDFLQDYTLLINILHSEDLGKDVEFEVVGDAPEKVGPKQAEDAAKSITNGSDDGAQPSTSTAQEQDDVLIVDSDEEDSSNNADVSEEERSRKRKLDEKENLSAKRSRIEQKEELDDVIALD
Assay [14] deals with T4, Heat shock factor protein 1 (Mus musculus, UniProt P38532).
T4 sequence (P38532 whole entry): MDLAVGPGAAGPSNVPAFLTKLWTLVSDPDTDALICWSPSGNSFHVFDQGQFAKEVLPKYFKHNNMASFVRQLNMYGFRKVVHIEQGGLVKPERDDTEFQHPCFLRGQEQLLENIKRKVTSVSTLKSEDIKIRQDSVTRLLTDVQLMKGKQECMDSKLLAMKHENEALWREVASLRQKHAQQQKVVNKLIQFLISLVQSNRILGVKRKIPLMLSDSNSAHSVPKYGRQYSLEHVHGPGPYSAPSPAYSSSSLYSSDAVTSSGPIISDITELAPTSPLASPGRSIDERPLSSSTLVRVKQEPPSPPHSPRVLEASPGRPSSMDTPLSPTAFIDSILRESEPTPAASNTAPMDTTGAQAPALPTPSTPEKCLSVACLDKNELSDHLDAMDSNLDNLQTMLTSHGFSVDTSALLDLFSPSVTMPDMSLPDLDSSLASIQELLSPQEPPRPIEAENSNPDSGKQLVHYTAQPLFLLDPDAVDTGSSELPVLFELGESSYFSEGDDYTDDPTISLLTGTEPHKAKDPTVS
Nature of the assay: HSF1 potentiators in luciferase reporter cells, confirmation, cell-based, NIH3T3, luminescence, dose retest (AID 435004).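 Further: stress induced by proteasome inhibitor MG132 added 30 min after compound; luciferase reporter driven by HSF1 response element in NIH3T3 cells; actives raise luminescence as potentiators of the MG132 stress response.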 It counts as functional.

Beta Lactamase, sequence (Q932Y6 whole entry, the tested form may be a part): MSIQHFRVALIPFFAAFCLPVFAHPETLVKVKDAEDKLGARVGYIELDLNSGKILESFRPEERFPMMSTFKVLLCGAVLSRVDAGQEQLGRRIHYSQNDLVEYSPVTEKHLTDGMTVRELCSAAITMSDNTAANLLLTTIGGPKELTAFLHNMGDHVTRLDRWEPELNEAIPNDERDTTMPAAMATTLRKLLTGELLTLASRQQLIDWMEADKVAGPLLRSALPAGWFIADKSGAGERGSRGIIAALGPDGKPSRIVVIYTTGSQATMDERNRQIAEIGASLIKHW

For `CCOC(=O)c1c(C)[nH]c2c1-c1ccccc1C(=O)C2=O`, the concentration for a half-maximal effect (EC50) in assay [1] was 254 nM (active); in assay [2], 487 nM (active); in assay [3], 403 nM (active); in the assay on BJ [4], 554 nM (inconclusive). Also, the concentration for half-maximal inhibition (IC50) in assay [5] was 915 nM (active).

For the compound `COc1ccc2c(c1)CCC(/C=N/c1ccc3c(c1)OCO3)=C2O`, the IC50 in assay [6] was > 80 µM (inactive).

`CC(=O)NC(c1ccc2ccccc2c1)c1ccc2cccnc2c1O` (centres undefined): the EC50 with BJ [7] is 687 nM (active). In addition, the values for the IC50 (in assay [8]; in assay [9]; in the assay with HEK293) were > 80 µM (inactive), > 118 µM (inactive) and 21.5 µM (inactive), respectively.

On to `O=C(c1ccccc1)c1coc2c1C(=O)c1ccccc1C2=O`, for which, in assay [10], the EC50 was 37.7 µM (inactive).

With `CCc1ccc(Nc2n[n+](-c3ccccc3)c(-c3c(Cl)cccc3Cl)s2)cc1`, the EC50 in assay [11] is 3.58 µM (active); at Streptokinase A, 7.4 µM (active); in the assay with Streptococcus, 10.3 µM (active); in [12], > 32 µM (inactive). Besides, the IC50 on Beta Lactamase was 3.12 µM (active). In assay [13], the AC50 is 5.91 µM (active).

On to `CCOC(=O)c1c(C)oc2c1c(/C=N/CCC(=O)O)c(O)c1ccccc12`, for which, at SUMO-activating enzyme, the IC50 was 3.71 µM (active).

In the case of `CCOC(=O)C1=C(c2ccccc2)N=C(N)NC1c1ccc(OCc2ccc(Cl)cc2)c(OC)c1` (centres undefined), the EC50 in [14] is 25 µM (active).
